Reference: patent US20020192231A1, “Method of increasing anti-neuGc antibody levels in blood” (Immucom Inc., priority 2001, published 2002)

What was measured:
[1] = tested on: human anti-nonαGal (anti-NeuGc); assay: Inhibition of human anti-nonαGal binding to pRBC by sialic acids, flow cytometry; conditions: for effect on antibody binding to pRBC: antibodies preincubated with 10 mM sialic acid
Experimental: FIG. 1. Flow cytometry analysis of human anti-nonαGal. The antibodies were incubated with pRBC (type O) at room temperature for 30 min. Anti-human IgG (H+L) conjugated with R-phycoerythrin (PE) was used as a second antibody. (A) The antibodies were bound to untreated (peak 1) or sialidase-treated (peak 2) pRBC. In an inhibition assay, the antibodies were preincubated with NeuAc (peak 3) or NeuGc (peak 4) prior to binding with untreated pRBC. Cells plus the secondary antibody (peak 5) was used as background controls for the flow cytometry. (B) The antibodies were pre-incubated with increasing concentrations of NeuGc (●) or NeuAc (∘) prior to flow cytometry analysis. The percentage of binding (% MFI) was plotted against sialic acid concentrations. Human anti-nonαGal was prepared by depleting anti-αGal from the total xenoreactive antibodies in the serum (31). […] On the other hand, pre-treatment of fresh pRBC with a number of other exoglycosidases (β-galactosidase, α-N-acetylgalactosaminidase and hexosaminidase) had no effect on antibody binding (data not shown). To elucidate the nature of antigens recognized by anti-nonαGal, the antibodies were preincubated with 10 mM NeuGc or NeuAc prior to the binding with pRBC.

[2] = tested on: chicken anti-gangliosides; assay: Inhibition of purified chicken anti-gangliosides binding to pRBC, flow cytometry; conditions: pre-incubation with NeuGc
Experimental: (§1) FIG. 5. Selective inhibition of chicken anti-NeuGc and anti-gangliosides. (A) Prior to flow cytometry analysis, both antibodies were pre-incubated with increased amount of NeuGc. (B) Both antibodies were pre-incubated with increasing amount of porcine gangliosides. To further purify chicken antibodies that bind to the thyroglobulin column, we eluted the column with PBS containing NeuGc, followed by glycine-HCI, pH 2.5. The two resultant fractions are designated as anti-NeuGc and anti-gangliosides, respectively, based on detailed characterization of their binding specificities as described below. Quantitatively, there are roughly ten times more anti-NeuGc than anti-gangliosides activity in the chicken antibodies based on flow cytometry analysis (assuming there are the same amounts of binding sites for both antibodies on pRBC). Both of antibody fractions, anti-NeuGc and anti-gangliosides, derived from further purification of the post-immune IgY bind to pRBC in flow cytometry.

chicken anti-NeuGc = assay: Inhibition of purified chicken anti-NeuGc binding to pRBC, flow cytometry; conditions: at 9.5 mM of NeuGc
Experimental: as §1

post-immune IgY = assay: Inhibition of chicken post-immune IgY binding to pRBC, flow cytometry; conditions: pre-incubation with 3.75 mM NeuGc
Experimental: FIG. 3. Flow cytometry analysis of chicken antibody raised against porcine gangliosides. The antibody sample was incubated with α-galactosidase pRBC (type O) at room temperature for 0.5 hour. Anti-chicken IgG (H+L) conjugated with FITC was used as a second antibody. Cells alone or cells plus the secondary antibody (1) were used as a background control for the flow cytometry (Becton Dickinson). Chicken antibodies (0.1 ul each) prepared from pre-immune eggs (2) and post-immune eggs (3) were analyzed by flow cytometry analysis. Post-immune antibodies were pre-incubated with 3.75 mM NeuGc (4) or 3.75 mg/ml porcine gangliosides (5) prior to the analysis. To examine the effect of ganglioside immunization and level of induced antibodies in eggs, IgY prepared from pre-immune eggs and post-immune eggs were analyzed by flow cytometry analysis using α-galactosidase-treated pRBC. […] We are collecting 20-25 eggs per hen per month.

[3] = tested on: breast cancer cell line MCF-7; assay: ECL fluorescence immunoassay on fixed MCF-7 cells; assay type: cell-based; conditions: 30 mM NeuGc
Experimental: More recently, we have succeeded in detecting NeuGc antigen in breast cancer cell line MCF-7 using purified chicken anti-NeuGc antibody. Cells are seeded in chambered slides under cell culture conditions. After growing upto 80%-90% confluence (approximately 2-3 days), cells are gently washed with PBS, pH 7.2, and then fixed in 300 ul methanol for 5 min at room temperature. The chambered slides are blocked with PBS containing 2% BSA prior to the incubation with purified chicken anti-NeuGc in a ECL fluorescence immunoassay. […] Its binding specificity was confirmed by inhibition with 30 mM NeuGc.

Row | inhibition of antibody binding ([1]; NeuAc as high as 6 mM) | effect on antibody binding to pRBC [1] | maximal inhibition of anti-gangliosides binding [2] | inhibition of human anti-NeuGc activity by pre-incubation ([1]; anti-NeuGc purified from normal human sera) | inhibition of antibody binding ([1]; at 1.2 mM of NeuGc) | IC50 ([1]; based on mean fluorescent intensity (MFI), read-out: I50 value (concentration that gives rise to 50% inhibition)) [µM] | inhibition of anti-NeuGc binding (chicken anti-NeuGc) | inhibition of binding activity (post-immune IgY) | SMILES | inhibition of anti-NeuGc binding to MCF-7 cells [3]
1 | essentially no inhibition | no effect |  |  |  |  |  |  | CC(=O)N[C@H]1[C@H]([C@H](O)[C@H](O)CO)OC(O)(C(=O)O)C[C@@H]1O (stereo partly shown) [NeuAc, N-acetylneuraminic acid] | 
2 |  | strong inhibitory effect | approximately 30% | specifically inhibited | Ninety | ~73 | more than 95% | partially inhibited | O=C(CO)N[C@H]1[C@H]([C@H](O)[C@H](O)CO)OC(O)(C(=O)O)C[C@@H]1O (stereo partly shown) [NeuGc, N-glycolylneuraminic acid] | inhibition
